Measurements taken from US20260053861A1, “CELL COMPOSITIONS AND METHODS OF USING THE SAME” (THE REGENTS OF THE UNIVERSITY OF CALIFORNIA, priority 2022, published 2026).
Structures can show the parent of a compound that is named as a salt.

These compounds were tested on hPSC-SCs. Conditions: not given.

SMILES	z.score.t
COc1ccn(C)c(=O)c1C#N [Ricinine]	0.8646
Cc1nc2n(c(=O)c1CCN1CCC(c3noc4cc(F)ccc34)CC1)CCCC2 [Risperidone]	0.02517
O=[N+]([O-])c1cc([As](=O)(O)O)ccc1O [Roxarsone]	−0.751
c1ccc2c(c1)CCCc1cc(NCCN3CCOCC3)nnc1-2 [SR-95639A]	−0.4139
C[n+]1cc2c3c(ccc2c2ccc4cc5c(cc4c21)OCO5)OCO3 [Sanguinarine]	−1.558
Br.C[N+]1([O-])[C@@H]2CC(OC(=O)[C@H](CO)c3ccccc3)C[C@H]1[C@@H]1O[C@@H]12 (stereo partly shown) [Scopolamin-N-oxide hydrobromide]	−0.1983
CN1[C@@H]2C[C@@H](OC(=O)[C@H](CO)c3ccccc3)C[C@H]1[C@@H]1O[C@@H]12 [Scopolamine hydrochloride]	0.07936
COc1cc2c(cc1O)[C@@H]1Cc3ccc(OC)c(O)c3CN1CC2 [Scoulerine]	−1.209
O=C1C=C2C=C[C@@H]3C[C@@]2(O1)[C@H]1CCCCN31 [Securinine]	−0.9042
C#CCN(C)[C@H](C)Cc1ccccc1 [Selegiline hydrochloride]	−0.9978
C=C1C/C(=C/C)C(=O)O[C@@H]2CCN3CC=C(COC(=O)[C@]1(C)O)[C@H]23 [Seneciphylline]	0.767
NCCc1c[nH]c2ccc(O)cc12 [Serotonin hydrochloride]	−1.195
C[C@@H]1CC[C@@]2(NC1)O[C@H]1C[C@H]3[C@@H]4CC=C5C[C@@H](O)CC[C@]5(C)[C@H]4CC[C@]3(C)[C@H]1[C@@H]2C [Solasodine]	0.9178
C1CCN2C[C@@H]3C[C@@H](CN4CCCC[C@@H]34)[C@H]2C1 [Sparteine (−)]	0.1131
C[C@]12CC[C@H]3[C@@H](CC[C@]4(O)C[C@@H](O)CC[C@]34C=O)[C@@]1(O)CC[C@@H]2C1=CC(=O)OC1 [Strophanthidin]	−2.4
C[C@@H]1O[C@@H](O[C@H]2C[C@@H](O)[C@]3(CO)[C@H]4[C@H](O)C[C@]5(C)[C@@H](C6=CC(=O)OC6)CC[C@]5(O)[C@@H]4CC[C@]3(O)C2)[C@H](O)[C@H](O)[C@H]1O.O.O.O.O.O.O.O.O [Strophantine octahydrate]	−2.04

Same assay, conditions: HTS viability of hPSC-SCs in the presence of 30 mM glucose; Prestwick library; Table S4

SMILES	z.score.t
CO[C@H]1/C=C/O[C@@]2(C)Oc3c(C)c(O)c4c(c3C2=O)C2=NC3(CCN(CC(C)C)CC3)NC2=C(NC(=O)/C(C)=C\C=C\[C@H](C)[C@H](O)[C@@H](C)[C@@H](O)[C@@H](C)[C@H](OC(C)=O)[C@@H]1C)C4=O [Rifabutin]	−0.1474
CO[C@H]1/C=C/O[C@@]2(C)Oc3c(C)c(O)c4c(O)c(c(/C=N/N5CCN(C)CC5)c(O)c4c3C2=O)NC(=O)/C(C)=C\C=C\[C@H](C)[C@H](O)[C@@H](C)[C@@H](O)[C@@H](C)[C@H](OC(C)=O)[C@@H]1C [Rifampicin]	1.139
CCC(=O)[C@@]1(C)[C@H](C)C[C@H]2[C@@H]3CCC4=CC(=O)C=C[C@]4(C)[C@H]3[C@@H](O)C[C@@]21C [Rimexolone]	−1.354
CC(NCCc1ccc(O)cc1)C(O)c1ccc(O)cc1 (stereo not shown) [Ritodrine hydrochloride]	0.5046
COc1ccc(C2CNC(=O)C2)cc1OC1CCCC1 (stereo not shown) [Rolipram]	−0.01101
CN(C)[C@@H]1C(O)=C(C(=O)NCN2CCCC2)C(=O)[C@@]2(O)C(O)=C3C(=O)c4c(O)cccc4[C@@](C)(O)[C@H]3C[C@@H]12 [Rolitetracycline]	1.601
Cn1c([N+](=O)[O-])cnc1COC(N)=O [Ronidazole]	−0.5875
CC(=O)OCC(=O)NCCCOc1cccc(CN2CCCCC2)c1 [Roxatidine Acetate HCl]	1.139
CC[C@H]1OC(=O)[C@H](C)[C@@H](O[C@H]2C[C@@](C)(OC)[C@@H](O)[C@H](C)O2)[C@H](C)[C@@H](O[C@@H]2O[C@H](C)C[C@H](N(C)C)[C@H]2O)[C@](C)(O)C[C@@H](C)/C(=N\OCOCCOC)[C@H](C)[C@@H](O)[C@]1(C)O [Roxithromycin]	0.3241
CC(C)Cc1ccc([C@H](C)C(=O)O)cc1 [S-(+)-ibuprofen]	1.02
CC(C)(C)NCC(O)c1ccc(O)c(CO)c1 (stereo not shown) [Salbutamol]	0.5041
OCc1cc(C(O)CNCCCCCCOCCCCc2ccccc2)ccc1O (stereo not shown) [Salmeterol]	−1.331
C[C@@H]1NCCc2cc(O)c(O)cc21 [Salsolinol hydrobromide]	0.4048
CC(C)(C)NC(=O)[C@@H]1C[C@@H]2CCCC[C@@H]2CN1C[C@@H](O)[C@H](Cc1ccccc1)NC(=O)[C@H](CC(N)=O)NC(=O)c1ccc2ccccc2n1 [Saquinavir mesylate]	−0.3033
COc1cc2ccc(=O)oc2cc1O [Scopoletin]	−1.558
Clc1ccc(C(Cn2ccnc2)OCc2csc3c(Cl)cccc23)c(Cl)c1 (stereo not shown) [Sertaconazole nitrate]	−1.558
CN[C@H]1CC[C@@H](c2ccc(Cl)c(Cl)c2)c2ccccc21 [Sertraline]	−1.388
CCC(C)(C)C(=O)O[C@H]1C[C@@H](C)C=C2C=C[C@H](C)[C@H](CC[C@@H]3C[C@@H](O)CC(=O)O3)[C@H]21 [Simvastatin]	−0.9395
CN[C@@H]1[C@@H](O)[C@@H](O[C@@H]2[C@@H](O)[C@H](O[C@H]3OC(CN)=CC[C@H]3N)[C@@H](N)C[C@H]2N)OC[C@]1(C)O [Sisomicin sulfate]	−0.3319

SMILES	z.score.t
COc1ccc2c(OC)c3ccoc3nc2c1OC [Skimmianine]	−0.7376
CC(C)NCC(O)c1ccc(NS(C)(=O)=O)cc1 (stereo not shown) [Sotalol hydrochloride]	−1.056
CC(=O)N[C@@H](CC(=O)N[C@@H](CCC(=O)O)C(=O)O)C(=O)O [Spaglumic acid]	2.046
CN[C@@H]1[C@H](O)[C@H](NC)[C@H]2O[C@@]3(O)C(=O)C[C@@H](C)O[C@H]3O[C@@H]2[C@H]1O [Spectinomycin dihydrochloride]	1.101
O=C(CCCN1CCC2(CC1)C(=O)NCN2c1ccccc1)c1ccc(F)cc1 [Spiperone]	0.09999
CC(=O)S[C@@H]1CC2=CC(=O)CC[C@]2(C)[C@H]2CC[C@@]3(C)[C@@H](CC[C@@]34CCC(=O)O4)[C@H]12 [Spironolactone]	0.05523
C[N+]1(C)CCC[C@H]1C(=O)[O-].Cl [Stachydrine hydrochloride]	−0.8304
[H]/N=C(/N)N[C@H]1[C@H](O)[C@@H](O)[C@H](O[C@@H]2O[C@@H](C)[C@](O)(C=O)[C@H]2O[C@@H]2O[C@@H](CO)[C@H](O)[C@@H](O)[C@@H]2NC)[C@@H](N/C(N)=N\[H])[C@@H]1O [Streptomycin sulfate]	−1.359
O=C(O)CCC(=O)Nc1ccc(S(=O)(=O)Nc2nccs2)cc1 [Succinylsulfathiazole]	−0.6792
Clc1ccc(CSC(Cn2ccnc2)c2ccc(Cl)cc2Cl)cc1 (stereo not shown) [Sulconazole nitrate]	−0.2136
Nc1ccc(S(=O)(=O)NC(=O)c2ccccc2)cc1 [Sulfabenzamide]	−0.9042
CC(=O)[N-]S(=O)(=O)c1ccc(N)cc1.O.[Na+] [Sulfacetamide sodic hydrate]	−0.2865
Nc1ccc(S(=O)(=O)Nc2ccc(Cl)nn2)cc1 [Sulfachloropyridazine]	−0.1014
Nc1ccc(S(=O)(=O)Nc2ncccn2)cc1 [Sulfadiazine]	0.5856
COc1cc(NS(=O)(=O)c2ccc(N)cc2)nc(OC)n1 [Sulfadimethoxine]	0.1469
COc1ncnc(NS(=O)(=O)c2ccc(N)cc2)c1OC [Sulfadoxine]	0.8015
[H]/N=C(/N)NS(=O)(=O)c1ccc(N)cc1 [Sulfaguanidine]	−0.2425
Cc1ccnc(NS(=O)(=O)c2ccc(N)cc2)n1 [Sulfamerazine]	0.3022
COc1cnc(NS(=O)(=O)c2ccc(N)cc2)nc1 [Sulfameter]	1.493

SMILES	z.score.t
Cc1cc(C)nc(NS(=O)(=O)c2ccc(N)cc2)n1 [Sulfamethazine sodium salt]	0.3022
Cc1nnc(NS(=O)(=O)c2ccc(N)cc2)s1 [Sulfamethizole]	1.132
Cc1cc(NS(=O)(=O)c2ccc(N)cc2)no1 [Sulfamethoxazole]	0.02534
COc1ccc(NS(=O)(=O)c2ccc(N)cc2)nn1 [Sulfamethoxypyridazine]	0.2139
COc1cc(NS(=O)(=O)c2ccc(N)cc2)ncn1 [Sulfamonomethoxine]	0.453
Nc1ccc(S(N)(=O)=O)cc1 [Sulfanilamide]	−0.4325
Nc1ccc(S(=O)(=O)Nc2ccnn2-c2ccccc2)cc1 [Sulfaphenazole]	0.4626
Nc1ccc(S(=O)(=O)Nc2ccccn2)cc1 [Sulfapyridine]	1.853
Nc1ccc(S(=O)(=O)Nc2cnc3ccccc3n2)cc1 [Sulfaquinoxaline sodium salt]	1.117
O=C(O)c1cc(/N=N/c2ccc(S(=O)(=O)Nc3ccccn3)cc2)ccc1O [Sulfasalazine]	0.1344
Nc1ccc(S(=O)(=O)Nc2nccs2)cc1 [Sulfathiazole]	0.9109
O=C1C(CC[S+]([O-])c2ccccc2)C(=O)N(c2ccccc2)N1c1ccccc1 (stereo not shown) [Sulfinpyrazone]	0.3922
Cc1noc(NS(=O)(=O)c2ccc(N)cc2)c1C [Sulfisoxazole]	0.1556
CC1=C(CC(=O)O)c2cc(F)ccc2/C1=C\c1ccc([S+](C)[O-])cc1 (stereo not shown) [Sulindac]	−0.2425
COc1cc([S+](C)[O-])ccc1-c1nc2ncccc2[nH]1 (stereo not shown) [Sulmazole]	0.6376
CCCCCCCCNC(C)C(O)c1ccc(SC(C)C)cc1 (stereo not shown) [Suloctidil]	−0.649
CCN1CCCC1CNC(=O)c1cc(S(N)(=O)=O)ccc1OC (stereo not shown) [Sulpiride]	0.1594
CC(C(=O)O)c1ccc(C(=O)c2cccs2)cc1 (stereo not shown) [Suprofen]	0.2361
CCCCC1(COC(=O)CCC(=O)O)C(=O)N(c2ccccc2)N(c2ccccc2)C1=O [Suxibuzone]	0.9352
